# Source: ChEMBL document CHEMBL1133171, “Selective plasma hydrolysis of glucocorticoid gamma-lactones and cyclic carbonates by the enzyme paraoxonase: an ideal plasma inactivation mechanism” (J Med Chem, 2000)
# Assays:
# Glucocorticoid receptor [1] = target: T1, Glucocorticoid receptor (Homo sapiens, UniProt P04150); experiment: (§1) Inhibition of [3H]dexamethasone binding to human Glucocorticoid Receptor
# T1 sequence (P04150 whole entry): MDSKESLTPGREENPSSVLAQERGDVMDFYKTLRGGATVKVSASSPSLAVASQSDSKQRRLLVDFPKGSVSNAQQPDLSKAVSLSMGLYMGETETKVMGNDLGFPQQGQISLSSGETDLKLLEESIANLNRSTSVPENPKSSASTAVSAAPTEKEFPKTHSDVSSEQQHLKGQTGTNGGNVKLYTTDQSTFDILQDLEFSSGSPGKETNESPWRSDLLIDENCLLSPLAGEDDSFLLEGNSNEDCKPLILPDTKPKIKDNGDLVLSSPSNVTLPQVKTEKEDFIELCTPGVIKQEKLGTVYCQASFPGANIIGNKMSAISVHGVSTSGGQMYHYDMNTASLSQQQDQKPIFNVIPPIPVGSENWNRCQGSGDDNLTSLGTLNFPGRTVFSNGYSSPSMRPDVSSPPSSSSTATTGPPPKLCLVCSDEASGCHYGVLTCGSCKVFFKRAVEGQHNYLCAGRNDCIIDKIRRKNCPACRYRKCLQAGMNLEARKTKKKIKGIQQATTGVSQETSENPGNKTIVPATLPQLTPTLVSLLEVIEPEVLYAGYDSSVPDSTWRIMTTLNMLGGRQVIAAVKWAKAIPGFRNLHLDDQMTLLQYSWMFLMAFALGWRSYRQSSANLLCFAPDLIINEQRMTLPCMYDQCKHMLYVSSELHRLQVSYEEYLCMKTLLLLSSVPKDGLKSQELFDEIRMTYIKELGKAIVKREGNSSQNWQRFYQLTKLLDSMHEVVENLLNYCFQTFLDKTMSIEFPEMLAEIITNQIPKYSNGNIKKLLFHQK
# Glucocorticoid receptor [2] = target: T1, Glucocorticoid receptor; experiment: as §1; remark: listed apart in the source
compound,measurement,setting,value
CC1(C)O[C@@H]2CC3C4C[C@H](F)C5=CC(=O)C=C[C@]5(C)[C@@]4(F)[C@@H](O)C[C@]3(C)[C@]2(C(=O)CSC(CCO)C(=O)O)O1 (some centres not stated),IC50,Glucocorticoid receptor [1],827 nM
same,IC50,Glucocorticoid receptor [2],194 nM
